Laboratory results taken from paper PMC8318587, “Structure-guided microbial targeting of antistaphylococcal prodrugs” (eLife, 2021).

Legend:
[1] = system: GloB; assay: 4-Nitrophenyl ester substrate activity assay; assay type: biochemical, Staphylococcus aureus; conditions: 1 µM protein, 1 mM substrate, 37°C, A405
Experimental: (§1) 4-Nitrophenyl substrate-specific activity was determined in 50 µL reactions containing 25 mM Tris pH 7.5, 250 mM NaCl, 1 mM MnCl2, 10% glycerol, 1 µM protein, and 1 mM 4-nitrophenyl substrate. The tested substrates, 4-nitrophenyl acetate (Sigma, N8130), 4-nitrophenyl butyrate (Sigma N9876), and 4-nitrophenyl trimethylacetate (Sigma 135046), were resuspended in acetonitrile at 100 mM. Reactions without 4-nitrophenyl substrate were preincubated at 37°C for 10 min prior to assay initiation via substrate addition. Conversion of 4-nitrophenyl substrates to 4-nitrophenol was tracked photometrically at 37°C and A405nm. Experiments were performed in triplicate with technical duplicates.

[2] = target: T1, FrmB (Staphylococcus aureus, UniProt A0A0H3KFB7); assay: 4-Nitrophenyl ester substrate activity assay; assay type: biochemical; conditions: 1 µM protein, 1 mM substrate, 37°C, A405
T1 construct: made in house; host or cells: E. coli BL21 (DE3)
Experimental: as §1

[3] = target: T2, SaFrmB (Staphylococcus aureus, UniProt A0A0H3KFB7); assay: Esterase substrate specificity, fluorogenic SAR library kinetics; assay type: biochemical; conditions: for Km: SaFrmB 15 µg/mL, pH 7.5, 37°C; for In vitro activity (catalytic efficiency) for FrmB, in words: fluorogenic ester substrate
T2 construct: made in house; host or cells: E. coli BL21 (DE3)
T2 sequence (A0A0H3KFB7 1-253): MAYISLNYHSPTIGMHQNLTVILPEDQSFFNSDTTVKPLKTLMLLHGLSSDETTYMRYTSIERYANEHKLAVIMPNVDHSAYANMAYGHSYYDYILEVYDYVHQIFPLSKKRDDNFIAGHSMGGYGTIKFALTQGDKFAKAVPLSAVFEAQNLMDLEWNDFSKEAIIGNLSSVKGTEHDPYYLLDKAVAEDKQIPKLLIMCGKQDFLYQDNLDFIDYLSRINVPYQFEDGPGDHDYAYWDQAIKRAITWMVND
Procedure, shortened: (§2)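 Kinetics used purified enzymes at 15 µg/mL in 25 mM Tris pH 7.5, 250 mM NaCl, 1 mM MgCl2, 10% glycerol at 37 °C. Fluorescein release (ex 485/em 520 nm) was followed 15 min and converted via a standard curve. Initial rates over substrate concentrations were fitted to Michaelis–Menten for Km and Vmax, with kcat from enzyme amount.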

[4] = target: T3, SaGloB (Staphylococcus aureus, UniProt P0DY75); assay: as above; assay type: biochemical
T3 sequence (P0DY75 1-207): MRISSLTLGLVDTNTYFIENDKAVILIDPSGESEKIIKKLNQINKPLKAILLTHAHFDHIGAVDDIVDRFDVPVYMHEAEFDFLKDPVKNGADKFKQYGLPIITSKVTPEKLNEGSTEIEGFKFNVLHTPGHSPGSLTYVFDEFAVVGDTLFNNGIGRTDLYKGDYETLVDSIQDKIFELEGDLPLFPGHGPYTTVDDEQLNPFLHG
Procedure, shortened: as §2

[5] = system: S. aureus; assay: Microfluidics live cell imaging of pro-fluorescent substrate activation; assay type: cell-based, Staphylococcus aureus; conditions: 10 µM pro-fluorescent substrate, 37°C, 30 min of observation
Experimental: Overnight cultures of S. aureus were grown in LB media, back diluted 1:500, and grown to early exponential phase (OD600 0.1–0.15), then washed in 1× PBS, and loaded on a bacterial CellASIC ONIX2 microfluidic plate. Prior to cell loading, the microfluidics plate lines were flushed with 1× PBS + 1% DMSO or 10 µM fluorescent pro-substrate in 1× PBS + 1% DMSO, and the plate was preincubated at 37°C. The microfluidics plate was loaded onto a Nikon Ti-E inverted microscope (Nikon Instruments, Inc) equipped with a 100× Plan N (N.A. = 1.45) Ph3 objective, SOLA SE Light Engine (Lumencor), heated control chamber (OKO Labs), and an ORCA-Flash4.0 sCMOS camera (Hammamatsu Photonics). The GFP filter set was purchased from Chroma Technology Corporation. Cells were loaded into the chamber until a single field of view contained 50–150 cells or cell clusters. […] Images were acquired every two min for a total of 44 min, and all experiments were undertaken at 37°C. The phase-contrast exposure time was kept constant at 200 ms, and the fluorescent channel exposure time was kept constant at 500 ms. For fluorescent images, the gain remained constant across all experiments. Image capture and analysis was performed using Nikon Elements Advanced Research software. Individual cells or clusters of cells were auto detected in the fluorescent channel using the intrinsic background fluorescence of each cell. […] Fluorescent intensity for each individual cell or cluster of cells was measured through the duration of the experiment and normalized to the area of the identified cell to yield the mean fluorescent intensity. Background cell autofluorescence was corrected by subtracting the average fluorescence across all identified objects from t = 0 through t = 10. Each experiment was performed in duplicate, with >50 individual cells or clusters analyzed in each experiment.

[6] = system: mouse sera; assay: Esterase substrate specificity, fluorogenic SAR library kinetics in serum; assay type: in vitro ADME
[7] = system: human sera; assay: as above; assay type: in vitro ADME
[8] = target: T2, SaFrmB; assay: Glyoxalase II activity assay (DTNB coupled); assay type: biochemical; conditions: 1 mM substrate, 37°C, 412 nm
Experimental: (§3) Glyoxalase II activity was assessed as previously with minor changes ([Mikati et al., 2020]; [Stamp et al., 2010]). Briefly, reactions were mixed to form a final concentration of 25 mM Tris pH 7.5, 250 mM NaCl, 1 mM MnCl2, 10% glycerol, 200 µM 5,5’-dithiobis(2-nitrobenzoic acid) (DTNB, Sigma D8130), 1 mM D-lactoylglutathione (Sigma L7140), and 0.15–0.63 µg protein (130–550 nM GloB, 100–430 nM FrmB). Protein concentrations were varied to ensure the reaction was linear across protein concentrations. Reactions without D-lactoylglutathione were pre-incubated at 37°C for 10 min prior to assay initiation with the addition of substrate. Release of glutathione from D-lactoylglutathione was quantified spectrophotometrically at 37°C and 412 nm through the conversion of DTNB to TNB. Experiments were performed in triplicate with technical duplicates.

[9] = target: T3, SaGloB; assay: Glyoxalase II activity assay (DTNB coupled); assay type: biochemical; conditions: 1 mM substrate, 37°C, 412 nm
Experimental: as §3

CC(=O)Oc1ccc([N+](=O)[O-])cc1 [4-nitrophenyl acetate]
Hydrolysis of 4-nitrophenyl ester by GloB, in words [1]: no detectable activity
Hydrolysis of 4-nitrophenyl ester by FrmB, in words [2]: modest activity

CCCC(=O)Oc1ccc([N+](=O)[O-])cc1 [4-nitrophenyl butyrate]
Hydrolysis of 4-nitrophenyl ester by GloB, in words [1]: no detectable activity
Hydrolysis of 4-nitrophenyl ester by FrmB, in words [2]: modest activity

CC(C)(C)C(=O)Oc1ccc([N+](=O)[O-])cc1 [4-nitrophenyl trimethylacetate]
Hydrolysis of 4-nitrophenyl ester by GloB, in words [1]: no detectable activity
Hydrolysis of 4-nitrophenyl ester by FrmB, in words [2]: no activity

CCOCCC(=O)OCOc1ccc2c(c1)Oc1cc(OCOC(=O)CCOCC)ccc1C21OC(=O)c2ccccc21 [5O]
Km [3]: > 50 µM
In vitro activity (catalytic efficiency) for FrmB, in words [3]: poor activity
kcat/kuncat ([4]; SaGloB, normalised to uncatalysed hydrolysis rate): 17.0 103
In vitro activity (catalytic efficiency) for GloB, in words ([4]; fluorogenic ester substrate): moderate activity
Intracellular activation (fluorescence) in live S. aureus, in words [5]: never appreciably activates
Km [6]: > 50 µM
Km [7]: 35.4 µM
Vmax [7]: 2.25 pmol*min-1*mg sera-1

CCC(CC)C(=O)OCOc1ccc2c(c1)Oc1cc(OCOC(=O)C(CC)CC)ccc1C21OC(=O)c2ccccc21 [9C]
Km [3]: > 50 µM
In vitro activity (catalytic efficiency) for FrmB, in words [3]: poor activity
Km ([4]; SaGloB, fluorogenic ester substrate): > 50 µM
In vitro activity (catalytic efficiency) for GloB, in words ([4]; fluorogenic ester substrate): poor activity
Intracellular activation (fluorescence) in live S. aureus, in words [5]: never appreciably activates
Km [6]: 12.3 µM
Vmax [6]: 3.18 pmol*min-1*mg sera-1
Km [7]: > 50 µM

CC(O)C(=O)SCC(NC(=O)CCC(N)C(=O)O)C(=O)NCC(=O)O (stereo not drawn) [S-lactoylglutathione]
Glyoxalase II activity (hydrolysis of substrate), in words [8]: lacks appreciable glyoxalase activity
Glyoxalase II activity (hydrolysis of substrate), in words [9]: specific activity comparable to previously characterized microbial type II glyoxalases
